Data from ChEMBL document CHEMBL4673314, “Stabilization Strategies for Linear Minigastrin Analogues: Further Improvements via the Inclusion of Proline into the Peptide Sequence” (J Med Chem, 2020).
Non-standard residues stand in square brackets, D forms with d. Residues, ends and D or L forms follow the SMILES beside them. *: point of attachment. DOTA = O=C(O)CN1CCN(CC(=O)O)CCN(CC(=O)*)CCN(CC(=O)O)CC1; 1Nal = N[C@@H](Cc1cccc2ccccc12)C(=O)O; NMeNle = CCCC[C@H](NC)C(=O)O

Assay: Retention time of the compound by HPLC method
Assay type: physicochemical

| SMILES | Retention_time |
| --- | --- |
| CCCC[C@@H](C(=O)N[C@@H](CC(=O)O)C(=O)N[C@@H](Cc1cccc2ccccc12)C(N)=O)N(C)C(=O)[C@H](Cc1c[nH]c2ccccc12)NC(=O)CNC(=O)[C@@H]1CCCN1C(=O)[C@H](Cc1ccc(O)cc1)NC(=O)[C@@H](CCC(=O)O)NC(=O)CN1CCN(CC(=O)O)CCN(CC(=O)O)CCN(CC(=O)O)CC1 ({DOTA}-[dE]YPGW[NMeNle]D[1Nal]-NH2) | 16.9 min |
| CCCC[C@@H](C(=O)N[C@@H](CC(=O)O)C(=O)N[C@@H](Cc1cccc2ccccc12)C(N)=O)N(C)C(=O)[C@H](Cc1c[nH]c2ccccc12)NC(=O)[C@@H]1CCCN1C(=O)[C@H](Cc1ccc(O)cc1)NC(=O)[C@H](C)NC(=O)[C@@H](CCC(=O)O)NC(=O)CN1CCN(CC(=O)O)CCN(CC(=O)O)CCN(CC(=O)O)CC1 ({DOTA}-[dE]AYPW[NMeNle]D[1Nal]-NH2) | 16.8 min |
| CCCC[C@@H](C(=O)N[C@@H](CC(=O)O)C(=O)N[C@@H](Cc1cccc2ccccc12)C(N)=O)N(C)C(=O)[C@H](Cc1c[nH]c2ccccc12)NC(=O)CNC(=O)[C@H](Cc1ccc(O)cc1)NC(=O)[C@@H]1CCCN1C(=O)[C@@H](CCC(=O)O)NC(=O)CN1CCN(CC(=O)O)CCN(CC(=O)O)CCN(CC(=O)O)CC1 ({DOTA}-[dE]PYGW[NMeNle]D[1Nal]-NH2) | 16.9 min |
